Tests used:
[1] = Inhibition of Caenorhabditis elegans carbonic anhydrase 4b by CO2 hydration assay
[2] = Selectivity ratio of Ki for human carbonic anhydrase 2 to Ki for Caenorhabditis elegans carbonic anhydrase 4b

| Ki [1] [nM] | Ratio Ki [2] | SMILES |
| --- | --- | --- |
| 11.5 | 3.54 | NNC(=O)c1[nH]c2ccc(S(N)(=O)=O)cc2c1-c1ccc(Br)cc1 |
| 13.3 | 3.63 | Cc1cccc(-c2c(C(=O)NN)[nH]c3ccc(S(N)(=O)=O)cc23)c1 |
| 260 | 0.18 | NNC(=O)c1[nH]c2ccc(S(N)(=O)=O)cc2c1-c1ccccc1Br |
| 6.5 | 1.78 | NNC(=O)c1[nH]c2ccc(S(N)(=O)=O)cc2c1-c1ccc(Cl)cc1 |
| 10.1 | 0.91 | NNC(=O)c1[nH]c2ccc(S(N)(=O)=O)cc2c1-c1cccc(Cl)c1 |
| 12.5 | 2.88 | NNC(=O)c1[nH]c2ccc(S(N)(=O)=O)cc2c1-c1ccccc1F |
| 6 | 2.58 | NNC(=O)c1[nH]c2ccc(S(N)(=O)=O)cc2c1-c1ccc(F)cc1 |
| 260 | 0.02 | NNC(=O)c1[nH]c2ccc(S(N)(=O)=O)cc2c1-c1c(F)c(F)c(F)c(F)c1F |
| 330 | 0.02 | COc1cccc(-c2c(C(=O)NN)[nH]c3ccc(S(N)(=O)=O)cc23)c1 |
| 326 | 0.03 | Cc1ccccc1-c1c(C(=O)NN)[nH]c2ccc(S(N)(=O)=O)cc12 |
| 9.9 | 0.86 | NNC(=O)c1[nH]c2ccc(S(N)(=O)=O)cc2c1-c1cccc(F)c1 |
| 12.2 | 4.95 | Cc1ccc(-c2c(C(=O)NN)[nH]c3ccc(S(N)(=O)=O)cc23)cc1 |
| 13.4 | 4.03 | NNC(=O)c1[nH]c2ccc(S(N)(=O)=O)cc2c1-c1cccc(Br)c1 |
| 372 | 0.1 | NNC(=O)c1[nH]c2ccc(S(N)(=O)=O)cc2c1-c1ccccc1Cl |

Reference: ChEMBL document CHEMBL1153906 (Bioorg Med Chem, 2009)
